Calls of active or inactive are those of the source. The rule behind the calls is not given here.
Experiments:
[1] = target: T1, Retinoic acid receptor RXR-alpha (Homo sapiens) (UniProt P19793); test: Displacement of 6-(Ethyl-{5-isobutoxy-4-isopropyl-2-[(10-oxo-2,3,5,6-tetrahydro-1H,4H,10H-11-oxa-3a-aza-benzo[de]anthracene-9-carbonyl)-amino]-phenyl}-amino)-nicotinic acid from human RXRalpha-LBD by fluorescence binding assay
T1 sequence (whole entry): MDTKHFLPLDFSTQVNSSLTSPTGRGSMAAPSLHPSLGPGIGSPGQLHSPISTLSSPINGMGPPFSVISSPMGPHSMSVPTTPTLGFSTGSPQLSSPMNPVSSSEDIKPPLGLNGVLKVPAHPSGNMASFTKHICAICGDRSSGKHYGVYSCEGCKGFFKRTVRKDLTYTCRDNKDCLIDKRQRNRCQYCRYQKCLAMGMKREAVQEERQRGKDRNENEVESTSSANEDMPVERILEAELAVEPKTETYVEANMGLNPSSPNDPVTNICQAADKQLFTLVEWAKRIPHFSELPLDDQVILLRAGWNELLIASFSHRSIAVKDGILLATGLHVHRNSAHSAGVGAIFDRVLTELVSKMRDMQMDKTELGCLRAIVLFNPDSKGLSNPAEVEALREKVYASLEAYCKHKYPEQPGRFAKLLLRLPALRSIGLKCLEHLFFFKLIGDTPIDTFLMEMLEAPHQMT

[2] = target: T2, Retinoic acid receptor RXR-alpha (Homo sapiens, UniProt P19793); test: Displacement of [3H]9cis-RA from human RXRalpha-LBD by competitive binding assay
T2 sequence (P19793 whole entry): T1 sequence (whole entry)

[3] = target: T2, Retinoic acid receptor RXR-alpha; test: Antagonist activity at human RXRalpha expressed in COS-7 cells assessed as suppression of NEt-TMN-induced receptor transactivation by luciferase reporter gene assay; assay type: cell-based; conditions: read-out: pA2 (converted)

| Structure (SMILES) | Activity [1] | Ki [2] [nM] | Kb [3] [nM] |
| --- | --- | --- | --- |
| CCCCC/C=C\C/C=C\C/C=C\C/C=C\CCCC(=O)O | Active | – | – |
| CC/C=C\C/C=C\C/C=C\C/C=C\C/C=C\CCCC(=O)O | Active | – | – |
| C=CCc1ccc(O)c(-c2ccc(O)c(CC=C)c2)c1 | Active | – | – |
| CC/C=C\C/C=C\C/C=C\C/C=C\C/C=C\C/C=C\CCC(=O)O | Active | – | – |
| CCN(c1ccc(C(=O)O)cn1)c1cc(OCC(C)C)c(C(C)C)cc1NC(=O)c1ccccc1 | – | 425 | 47.9 |

Source: ChEMBL document CHEMBL4765485, “Convenient Retinoid X Receptor Binding Assay Based on Fluorescence Change of the Antagonist NEt-C343” (J Med Chem, 2021)
